Key:
Assay type in all cases: biochemical
[1] = biological target: T1, TxGH116 β-glucosidase (Thermoanaerobacterium xylanolyticum, UniProt F6BL85); assay: crystal structure
T1 sequence (F6BL85 19-806): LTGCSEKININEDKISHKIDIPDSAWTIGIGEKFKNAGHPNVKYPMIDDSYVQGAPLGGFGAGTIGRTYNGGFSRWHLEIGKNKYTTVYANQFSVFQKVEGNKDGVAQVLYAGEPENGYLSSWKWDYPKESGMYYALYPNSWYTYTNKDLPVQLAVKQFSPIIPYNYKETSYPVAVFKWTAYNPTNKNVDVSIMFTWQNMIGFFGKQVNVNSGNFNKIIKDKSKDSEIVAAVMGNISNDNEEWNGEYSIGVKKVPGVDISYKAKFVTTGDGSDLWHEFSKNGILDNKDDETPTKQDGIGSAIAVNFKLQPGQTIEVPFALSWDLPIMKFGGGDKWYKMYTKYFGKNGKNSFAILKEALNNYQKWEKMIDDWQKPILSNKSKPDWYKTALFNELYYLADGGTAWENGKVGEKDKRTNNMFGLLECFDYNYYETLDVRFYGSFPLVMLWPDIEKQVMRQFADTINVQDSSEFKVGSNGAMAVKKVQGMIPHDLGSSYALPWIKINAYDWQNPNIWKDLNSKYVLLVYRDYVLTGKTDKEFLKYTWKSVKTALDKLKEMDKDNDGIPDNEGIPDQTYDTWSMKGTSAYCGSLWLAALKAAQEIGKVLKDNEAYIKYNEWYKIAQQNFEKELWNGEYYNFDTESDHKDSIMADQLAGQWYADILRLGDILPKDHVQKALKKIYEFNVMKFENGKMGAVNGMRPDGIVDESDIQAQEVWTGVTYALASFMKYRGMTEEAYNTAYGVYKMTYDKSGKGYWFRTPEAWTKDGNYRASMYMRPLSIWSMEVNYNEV

[2] = biological target: T1, TxGH116 β-glucosidase; assay: crystal structure; remark: listed apart in the source
[3] = biological target: T1, TxGH116 β-glucosidase; assay: inhibition of 4NPGlc hydrolysis, Lineweaver–Burk
[4] = biological target: T1, TxGH116 β-glucosidase; assay: inactivation of the purified enzyme

`OC[C@H]1NC[C@H](O)[C@@H](O)[C@@H]1O` [DNJ, deoxynojirimycin] was tested, and the Ki [1] was 0.13 ± 0.01 µM.
`OC[C@H]1O[C@@H](O)[C@H](O)[C@@H](O)[C@@H]1O` [Glc, D-glucose] was tested, and the Ki [2] was 4000 ± 300 µM.
Work on `OC[C@H]1CNC[C@@H](O)[C@@H]1O` [IFG, isofagomine] yielded a Ki [3] of 0.0029 ± 0.0001 µM.
With `OC[C@@H]1[C@@H](O)[C@H](O)[C@@H](O)[C@@H]2O[C@H]12` [cyclophellitol] the “inactivation of the purified enzyme” value [4] was “cyclophellitol, a related epoxide that contains a hydroxymethyl group corresponding to the hydroxymethyl group of glucose, rapidly inactivated TxGH116”.
